Results from patent US9216181B2 (Southwest Research Institute, priority 2011, dated 2015).
Counter-ions that a name gives are not always drawn. Like-named read-outs stand apart in the source and are kept apart here.

Columns and labels:
[1] = tested on: human mesenchymal stem cells (MSC); type: cell-based; parameters: key: *: Dose caused cell death; conditions: hMSC, 24 hrs
BMP-2 [2] = assay: BMP-2 fold change of JHU library compounds, confirmed by qPCR; type: cell-based, human; conditions: JHU library compounds; non-treated = 1.00
Text: To further verify the technique, a 2T3 mouse pre-osteoblast cell line derived from calvaria courtesy of Dr. Steve Harris, UTHSCSA, was utilized to visually screen the compounds of the BIOMOL library and JHU libraries, purchased from John Hopkins University including 2387 compounds (solution in wells). Specifically, Murine 2T3 were thawed from one frozen cryovial and re-seeded into two T-75 tissue culture flasks grown in Alpha MEM with 10% FBS, Glutamine, and Pen/Strip antibiotics. Cells were incubated in a humidified 37° C. under 5% CO2 for 48 hours or when cells reached 80% confluence. After reaching confluency, the 2T3 were trypsinized and resuspended in pre-warm growth media to a cell density of 5×10^4 cells/mL. Approximately 100 uL of cell suspension was seeded to a 96 well plate to give a final 5,000 cells per well. Plate was incubated overnight at 37° C. and spent media was aspirated and replace with 100 uL of growth media with 5-10 uM of presumptive drug compounds. A set of controls were untreated and treated with 10 uM of Lovastatin to be used as a visual reference morphological screening.
Human mesenchymal stem cells (LONZA, Catalog PT2501) were maintained in Mesenchymal stem cells basal media (MSCBM CAT#PT-3238). Early passage cells were plated in triplicate at 2×10^4 cells/cm^2 using six well tissue culture plates and grown in humidified 5% CO2 at 37° C. for 24 hours. Spent media was replaced by assay media of drugs to be tested in same media as above at 10 μM final concentration. Untreated cells were used as the control group. […] RNA concentration and integrity was assessed by absorbance 260/280 and electrophoresis in 1% Agarose with formaldehyde loading dye. For TaqMan gene expression, cDNA was synthesized from 2 μg of total RNA using the High Capacity cDNA Reverse Transcription Kit (Applied Biosystems, Cat. 4368814). The resulting cDNA were diluted 1:100 for TaqMan and amplified by real-time quantitative PCR. […] A cocktail of universal master mix (Applied Biosystems, 4369016) were prepared individually for both set of primers which contained Taq Polymerase, dNTPs, and buffer. Template cDNA's were added separately to respective individual wells in triplicate samples. The PCR were performed on StepOne Plus Real Time System instrument (Applied Biosystems). The amplification program consisted of 1 cycle of 95° C. with 10 minute hold (hot start) followed by 50 cycles of 95° C. with 15 second annealing hold and 1 minute 60° C. specified acquisition hold. […] Change in gene expression was determined by the expression ΔΔCt relative method.
Included in the tables is the target or common medical use for each compounds.

BMP-2 [3] = assay: Real time PCR of BMP-2 gene expression in human MSC (Cells-to-Ct); type: cell-based; conditions: BMP-2 mRNA, hMSC, 5-10 μM, 24 hours, vs untreated
Experimental: Early passage human mesenchymal stem cells (MSC) were thawed from one frozen cryo-vial and seeded into two T-75 tissue culture flasks and incubated at 37° C. for 48 hours in Alpha MEM with 10% FBS. After three days and one re-feeding, the cells were trypsinized and re-suspended in pre-warmed media at 5×10^4 cells/mL to provide 5,000 cells per well in a 96 well plate and incubated overnight at 37° C. in 5% CO2.
Each well was washed in cold PBS, lysed at room temperature for five minutes, and stop reagent added to each well to stop the lysis reaction. The final lysate was kept cold at 4° C. and used immediately as the RNA template for the reverse transcription cDNA synthesis following the TAQMAN GENE EXPRESSION CELLS TO CT KIT instructions.
The cDNA synthesis was prepared on a separate sterile 96-well PCR plate and performed on the Step One Plus Real Time PCR System instrument (Applied Biosystems) with the programming set at 37° C. for 60 minutes and an inactivation hold of 95° C. for five minutes. The final cDNA reaction was kept cold and used as the template for the TAQMAN GENE Real-Time PCR step following the recommended instructions for TAQMAN GENE EXPRESSION CELLS TO CT KIT assay. […] Template cDNA's were added separately to respective individual wells in replicate samples.
The PCR was performed on the STEPONEPLUS Real-Time System instrument (Applied Biosystems). The amplification program consisted of 1 cycle of 95° C. with 10 minute hold (hot start) and followed by 50 cycles of 95° C. with 15-second annealing hold and 1-minute 60° C. specified acquisition hold.

BMP2 = assay: Quantitative PCR (TaqMan, ΔΔCt) of BMP2 in human mesenchymal stem cells; type: cell-based; conditions: for fold induction at 10 µM: Homo sapiens, Mesenchymal stem cells, read-out: q-PCR Fold increase
Experimental: Human mesenchymal stem cells (LONZA, Catalog PT2501) were maintained in Mesenchymal stem cells basal media (MSCBM CAT#PT-3238). Early passage cells were plated in triplicate at 2×10^4 cells/cm^2 using six well tissue culture plates and grown in humidified 5% CO2 at 37° C. for 24 hours. Spent media was replaced by assay media of drugs to be tested in same media as above at 10 μM final concentration. Untreated cells were used as the control group. Total RNA were prepared using either TRI Reagent (Ambion, Cat. 9738), for subsequent TaqMan gene expression qPCR of BMP2. RNA concentration and integrity was assessed by absorbance 260/280 and electrophoresis in 1% Agarose with formaldehyde loading dye. For TaqMan gene expression, cDNA was synthesized from 2 μg of total RNA using the High Capacity cDNA Reverse Transcription Kit (Applied Biosystems, Cat. 4368814). The resulting cDNA were diluted 1:100 for TaqMan and amplified by real-time quantitative PCR. Gene-specific fluorescent labeled TaqMan primers for FAM-BMP2 (Applied Biosystems, Hs00154192.m1) and TaqMan reference VIC-18S ribosomal RNA (Applied Biosystems, 4310893E) were used to target gene of interest. A cocktail of universal master mix (Applied Biosystems, 4369016) were prepared individually for both set of primers which contained Taq Polymerase, dNTPs, and buffer. Template cDNA's were added separately to respective individual wells in triplicate samples. The PCR were performed on StepOne Plus Real Time System instrument (Applied Biosystems). The amplification program consisted of 1 cycle of 95° C. with 10 minute hold (hot start) followed by 50 cycles of 95° C. with 15 second annealing hold and 1 minute 60° C. specified acquisition hold. The Ct value of endogenous reference gene (i.e. 18 s) was used to control for input RNA and then used to normalize target gene (i.e. BMP2) tested from the same cDNA sample to calculate the Δ Ct, and then calibrated to an internal reference sample. Change in gene expression was determined by the expression ΔΔCt relative method.
18 compounds were confirmed positive by the more stringent qPCR techniques. […] Included in the tables is the target or common medical use for each compounds.

[4] = BMP2 mRNA, hMSC, 10 μM, vs untreated, 18S reference, BIOMOL library (Table 2)
[5] = positive control compounds (Table 1)
[6] = BMP2 mRNA, hMSC, 10 μM, vs untreated, 18S reference, positive control compounds (Table 1)

Row | Structure (SMILES) | RT PCR Fold increase (BMP-2 [3]; BIOMOL library (Table 2)) [fold] | fold induction at 10 µM (BMP2; [4]) | RT PCR Fold increase (BMP-2 [3]; [5]) [fold] | further results
1 | CCN(CC)CCCC(C)Nc1c2ccc(Cl)cc2nc2ccc(OC)cc12 (centres unmarked) [Quinacrine] | 52.9 | 95 | – | cell death ([1]; 5 uM): *Quinacrine; cell death ([1]; 10 uM): *Quinacrine; Fold change (BMP-2) (BMP-2 [2]): 722.00 fold
2 | CC[C@]1(O)C[C@@H]2CN(CCc3c([nH]c4ccccc34)[C@@](C(=O)OC)(c3cc4c(cc3OC)N(C)[C@H]3[C@@](O)(C(=O)OC)[C@H](OC(C)=O)[C@]5(CC)C=CCN6CC[C@]43[C@@H]65)C2)C1 [Vinblastine sulfate] | – | – | 9.5 | Fold change (BMP-2) (BMP-2 [2]): 64.00 fold; fold induction at 10 µM (BMP2; [6]): 1.7
3 | COC(=O)Nc1nc2cc(C(=O)c3ccc(F)cc3)ccc2[nH]1 [Flubendazole] | 5.6 | 1.7 | – | Fold change (BMP-2) (BMP-2 [2]): 10.00 fold
4 | CCC(C)(C)C(=O)O[C@H]1C[C@@H](C)C=C2C=C[C@H](C)[C@H](CC[C@@H]3C[C@@H](O)CC(=O)O3)[C@H]21 [Simvastatin] | – | – | 4.2 | fold induction at 10 µM (BMP2): 2.3
5 | COC(=O)Nc1nc2ccc(Sc3ccccc3)cc2[nH]1 [Fenbendazole] | 6.6 | 2 | – | –
6 | CC(C)n1c(/C=C/C(O)CC(O)CC(=O)[O-])c(-c2ccc(F)cc2)c2ccccc21.[Na+] (centres unmarked) [Fluvastatin Na] | – | – | 3.2 | q-PCR Fold increase (BMP2; [6]): 7.8 fold
7 | CC(C)C(=O)Nc1ccc([N+](=O)[O-])c(C(F)(F)F)c1 [Flutamide] | 9.7 | 1.6 | – | –
8 | COCc1c(C(C)C)nc(C(C)C)c(/C=C/[C@@H](O)C[C@@H](O)CC(=O)O)c1-c1ccc(F)cc1 [Cerivastatin] | – | – | 5.3 | fold induction at 10 µM (BMP2; [6]): 11.9
9 | CC(C)=CC[C@@H](O)C1=CC(=O)c2c(O)ccc(O)c2C1=O [Shikonin] | – | – | 23.5 | fold induction at 10 µM (BMP2): 1.5
10 | CCCCN1C[C@H](O)[C@@H](O)[C@H](O)[C@H]1CO [Miglustat] | 4.9 | 6.6 | – | –
11 | CC(=O)OC[C@H]1O[C@@H]([S-])[C@H](OC(C)=O)[C@@H](OC(C)=O)[C@@H]1OC(C)=O.CCP(CC)CC.[Au+] [Auranofin] | 309.8 | – | – | q-PCR Fold increase (BMP2; [4]): 17.6 fold
12 | COc1cc2nc(N3CCN(C(=O)c4ccco4)CC3)nc(N)c2cc1OC [Prazosin] | 6.8 | 4 | – | –
13 | CC(=O)O[C@@]12CO[C@@H]1C[C@H](O)[C@@]1(C)C(=O)[C@H](O)C3=C(C)[C@@H](OC(=O)[C@H](O)[C@@H](NC(=O)OC(C)(C)C)c4ccccc4)C[C@@](O)([C@@H](OC(=O)c4ccccc4)[C@H]21)C3(C)C [Docetaxil] | – | – | 11.0 | q-PCR Fold increase (BMP2; [6]): 2.7 fold
14 | CC[C@]1(O)C[C@@H]2CN(CCc3c([nH]c4ccccc34)[C@@](C(=O)OC)(c3cc4c(cc3OC)N(C)[C@H]3[C@@](O)(C(N)=O)[C@H](O)[C@]5(CC)C=CCN6CC[C@]43[C@@H]65)C2)C1 [Vindesine] | – | – | 12.4 | fold induction at 10 µM (BMP2; [6]): 1.8
15 | CC[C@H](C)C(=O)O[C@H]1CCC=C2C=C[C@H](C)[C@H](CC[C@@H]3C[C@@H](O)CC(=O)O3)[C@H]21 [Mevastatin] | – | – | 3.1 | fold induction at 10 µM (BMP2; [6]): 0.9
16 | CC[C@]1(O)C[C@H]2CN(CCc3c([nH]c4ccccc34)[C@@](C(=O)OC)(c3cc4c(cc3OC)N(C=O)[C@H]3[C@@](O)(C(=O)OC)[C@H](OC(C)=O)[C@]5(CC)C=CCN6CC[C@]43[C@@H]65)C2)C1 [Vincristine sulfate] | – | – | 10.8 | Fold change (BMP-2) (BMP-2 [2]): 57.00 fold; fold induction at 10 µM (BMP2; [6]): 1.8
17 | COC(=O)c1ccc(O)c2nc3c(C=O)c(O)cc(O)c3nc12 [Lomofungin] | 32.6 | 14.2 | – | Fold change (BMP-2) (BMP-2 [2]): 26.00 fold
18 | CN1CCc2cccc3c2[C@H]1Cc1ccc(O)c(O)c1-3 [Apomorphine r (−)] | 4.6 | 7.3 | – | –
19 | COc1ccc(C[C@H](N)C(=O)N[C@H]2[C@@H](O)[C@H](n3cnc4c(N(C)C)ncnc43)O[C@@H]2CO)cc1 [Puromycin] | 122.3 | 54.6 | – | –
20 | CC[C@@]1(O)C(=O)OCc2c1cc1n(c2=O)Cc2cc3cc(O)ccc3nc2-1 [10-hydroxy-camptothecin] | 30.0 | – | – | q-PCR Fold increase (BMP2; [4]): 3.9 fold
21 | CCCOc1ccc2nc(NC(=O)OC)[nH]c2c1 [Oxibendazole] | 4.5 | 1.4 | – | Fold change (BMP-2) (BMP-2 [2]): 18.00 fold
